In US10798941B2, “Microbiocidal oxadiazole derivatives” (SYNGENTA PARTICIPATIONS AG, priority 2016, dated 2020) one finds pest or weed control and inhibition of growth data, which are given here for 20 molecules.

For experiment [1], the system named is Puccinia recondita f. Sp. Tritici. The experiment is described as follows: Puccinia recondita f. sp. tritici / wheat / leaf disc preventative (brown rust). Format: in vivo. The conditions noted are these: foliar, 168 h, 200 ppm in the applied formulation, wheat leaf segments cv. Kanzler, preventative, inoculated 1 day after application, assessed 7 to 9 days after application, vs untreated, read-out: disease control. How it is done: (§1) Leaf disks or leaf segments of various plant species are cut from plants grown in a greenhouse. The cut leaf disks or segments are placed in multiwell plates (24-well format) onto water agar. The leaf disks are sprayed with a test solution before (preventative) or after (curative) inoculation. Compounds to be tested are prepared as DMSO solutions (max. 10 mg/ml) which are diluted to the appropriate concentration with 0.025% Tween20 just before spraying. The inoculated leaf disks or segments are incubated under defined conditions (temperature, relative humidity, light, etc.) according to the respective test system. A single evaluation of disease level is carried out 3 to 14 days after inoculation, depending on the pathosystem. Percent disease control relative to the untreated check leaf disks or segments is then calculated.
Wheat leaf segments cv. Kanzler were placed on agar in multiwell plates (24-well format) and sprayed with the formulated test compound diluted in water. The leaf disks were inoculated with a spore suspension of the fungus 1 day after application. The inoculated leaf segments were incubated at 19° C. and 75% relative humidity (rh) under a light regime of 12 hours light/12 hours darkness in a climate cabinet and the activity of a compound was assessed as percent disease control compared to untreated when an appropriate level of disease damage appears in untreated check leaf segments (7 to 9 days after application).
(§2) The following compounds at 200 ppm in the applied formulation give at least 80% disease control in this test when compared to untreated control leaf disks under the same conditions, which show extensive disease development.

In experiment [2] the test system is Glomerella Lagenarium (Colletotrichum Lagenarium). Put plainly: Glomerella lagenarium (Colletotrichum lagenarium) liquid culture / cucumber / preventative (anthracnose). Format: cell-based. The conditions noted are these: Colletotrichum orbiculare; 20 ppm in the applied formulation; liquid culture in PDB, 24° C., inhibition of growth measured photometrically 3 to 4 days after application, vs untreated; read-out: disease control. The method in brief: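 Conidia from cryogenic storage were mixed into potato dextrose broth. This was added to compound diluted from DMSO into 0.025% Tween20, tested at 20 ppm. Plates were incubated in the dark at 24 °C and 96% relative humidity, and growth was read photometrically after 2–7 days as % activity versus untreated check.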

The subject of experiment [3] is Puccinia recondita f. Sp. Tritici. Put plainly: Puccinia recondita f. sp. tritici / wheat / leaf disc curative (brown rust). It counts as in vivo. The conditions noted are these: foliar, 144 h, 200 ppm in the applied formulation, wheat leaf segments cv. Kanzler, applied 1 day after inoculation, assessed 6 to 8 days after application, vs untreated, read-out: disease control. How it is done:
as §1
Wheat leaf segments cv. Kanzler are placed on agar in multiwell plates (24-well format). The leaf segments are then inoculated with a spore suspension of the fungus. Plates were stored in darkness at 19° C. and 75% relative humidity. The formulated test compound diluted in water was applied 1 day after inoculation. The leaf segments were incubated at 19° C. and 75% relative humidity under a light regime of 12 hours light/12 hours darkness in a climate cabinet and the activity of a compound was assessed as percent disease control compared to untreated when an appropriate level of disease damage appears in untreated check leaf segments (6 to 8 days after application).
as §2

The next experiment deals with Phakopsora pachyrhizi. The experiment is described as follows: Phakopsora pachyrhizi / soybean / leaf disc preventative (Asian soybean rust). It counts as in vivo. The conditions noted are these: foliar, 288 h, 200 ppm in the applied formulation, soybean leaf disks, inoculated one day after application, assessed 12 to 14 days after application, vs untreated, read-out: disease control. How it is done:
as §1
Soybean leaf disks are placed on water agar in multiwell plates (24-well format) and sprayed with the formulated test compound diluted in water. One day after application leaf discs are inoculated by spraying a spore suspension on the lower leaf surface. After an incubation period in a climate cabinet of 24-36 hours in darkness at 20° C. and 75% rh leaf disc are kept at 20° C. with 12 h light/day and 75% rh. The activity of a compound is assessed as percent disease control compared to untreated when an appropriate level of disease damage appears in untreated check leaf disks (12 to 14 days after application).
as §2

With `CCOC(=O)c1c(C)ncn1Cc1ccc(-c2noc(C(F)(F)F)n2)cc1` [Compound 1.80, ethyl 5-methyl-3-[[4-[5-(trifluoromethyl)-1,2,4-oxadiazol-3-yl]phenyl]methyl]imidazole-4-carboxylate], the pest or weed control at 200 ppm in experiment [1] and in experiment [3] was at least 80% throughout. The inhibition of growth at 20 ppm in experiment [2] is at least 80%.
For the molecule `Cn1c(=O)c2c(ncn2Cc2ccc(-c3noc(C(F)(F)F)n3)cc2)n(C)c1=O` [Compound 1.81, 1,3-dimethyl-7-[[4-[5-(trifluoromethyl)-1,2,4-oxadiazol-3-yl]phenyl]methyl]purine-2,6-dione], the pest or weed control at 200 ppm in experiment [1] and in experiment [3] was at least 80% throughout. For the same molecule, the inhibition of growth at 20 ppm in experiment [2] is at least 80%.
Take `FC(F)(F)c1nc(-c2ccc(Cn3cnc(-c4ccccc4)c3)cc2)no1` [Compound 1.82, 3-[4-[(4-phenylimidazol-1-yl)methyl]phenyl]-5-(trifluoromethyl)-1,2,4-oxadiazole]: the pest or weed control at 200 ppm in experiment [1] and in experiment [3] was at least 80% throughout. In experiment [2], the inhibition of growth at 20 ppm was at least 80%.
As for `Cc1cn(Cc2ccc(-c3noc(C(F)(F)F)n3)cc2)cn1` [Compound 1.83, 3-[4-[(4-methylimidazol-1-yl)methyl]phenyl]-5-(trifluoromethyl)-1,2,4-oxadiazole], the pest or weed control at 200 ppm in experiment [1] and in experiment [3] was at least 80% in each case. In addition, in experiment [2], the inhibition of growth at 20 ppm is at least 80%.
`COC(=O)c1cncn1Cc1ccc(-c2noc(C(F)(F)F)n2)cc1` [Compound 1.89, methyl 3-[[4-[5-(trifluoromethyl)-1,2,4-oxadiazol-3-yl]phenyl]methyl]imidazole-4-carboxylate]: the pest or weed control at 200 ppm in experiment [1] and in experiment [3] was at least 80% throughout. Further, the inhibition of growth at 20 ppm in experiment [2] was at least 80%.
Regarding `COC(=O)c1ncn(Cc2ccc(-c3noc(C(F)(F)F)n3)cc2F)c1C(=O)OC` [Compound 1.118, dimethyl 1-[[2-fluoro-4-[5-(trifluoromethyl)-1,2,4-oxadiazol-3-yl]phenyl]methyl]imidazole-4,5-dicarboxylate], the pest or weed control at 200 ppm in experiment [1] and in experiment [3] was at least 80% throughout. Also, the inhibition of growth at 20 ppm in experiment [2] was at least 80%.
Regarding `N#Cc1ncn(Cc2ccc(-c3noc(C(F)(F)F)n3)cc2F)c1C#N` [Compound 1.119, 1-[[2-fluoro-4-[5-(trifluoromethyl)-1,2,4-oxadiazol-3-yl]phenyl]methyl]imidazole-4,5-dicarbonitrile], the pest or weed control at 200 ppm in experiment [1] and in experiment [3] was at least 80% in each case. Also, in experiment [2], the inhibition of growth at 20 ppm was at least 80%.
Regarding `Fc1cc(-c2noc(C(F)(F)F)n2)ccc1Cn1cnc(Br)c1` [Compound 1.120, 3-[4-[(4-bromoimidazol-1-yl)methyl]-3-fluoro-phenyl]-5-(trifluoromethyl)-1,2,4-oxadiazole], the pest or weed control at 200 ppm in experiment [1] and in experiment [3] was at least 80% in each case. Also, the inhibition of growth at 20 ppm in experiment [2] was at least 80%.
In the case of `Fc1cc(-c2noc(C(F)(F)F)n2)ccc1Cn1cnc(Cl)c1Cl` [Compound 1.121, 3-[4-[(4,5-dichloroimidazol-1-yl)methyl]-3-fluoro-phenyl]-5-(trifluoromethyl)-1,2,4-oxadiazole], the pest or weed control at 200 ppm in experiment [1] and in experiment [3] was at least 80% in each case. The inhibition of growth at 20 ppm in experiment [2] is at least 80%.
With `Cc1cn(Cc2ccc(-c3noc(C(F)(F)F)n3)cc2F)cn1` [Compound 1.124, 3-[3-fluoro-4-[(4-methylimidazol-1-yl)methyl]phenyl]-5-(trifluoromethyl)-1,2,4-oxadiazole], the pest or weed control at 200 ppm in experiment [1] and in experiment [3] was at least 80% each time. The inhibition of growth at 20 ppm in experiment [2] is at least 80%.
Turning to `Fc1cc(-c2noc(C(F)(F)F)n2)ccc1Cn1cc(Cl)cn1` [Compound 1.128, 3-[4-[(4-chloropyrazol-1-yl)methyl]-3-fluoro-phenyl]-5-(trifluoromethyl)-1,2,4-oxadiazole], the pest or weed control at 200 ppm in experiment [1] and in experiment [3] was at least 80% in each case. In experiment [2], the inhibition of growth at 20 ppm is at least 80%.
On to `Fc1cc(-c2noc(C(F)(F)F)n2)ccc1Cn1cc(I)cn1` [Compound 1.131, 3-[3-fluoro-4-[(4-iodopyrazol-1-yl)methyl]phenyl]-5-(trifluoromethyl)-1,2,4-oxadiazole], for which the pest or weed control at 200 ppm in experiment [1] and in experiment [3] was at least 80% in each case. The inhibition of growth at 20 ppm in experiment [2] is at least 80%.
For the molecule `Fc1cc(-c2noc(C(F)(F)F)n2)ccc1Cn1cc(Br)cn1` [Compound 1.132, 3-[4-[(4-bromopyrazol-1-yl)methyl]-3-fluoro-phenyl]-5-(trifluoromethyl)-1,2,4-oxadiazole], the pest or weed control at 200 ppm in experiment [1] and in experiment [3] was at least 80% throughout. In addition, in experiment [2], the inhibition of growth at 20 ppm was at least 80%.
As for `COC(=O)c1ncn(Cc2ccc(-c3noc(C(F)(F)F)n3)cn2)c1C(=O)OC` [Compound 1.133, dimethyl 1-[[5-[5-(trifluoromethyl)-1,2,4-oxadiazol-3-yl]-2-pyridyl]methyl]imidazole-4,5-dicarboxylate], the pest or weed control at 200 ppm in experiment [1] and in experiment [3] was at least 80% throughout. In experiment [2], the inhibition of growth at 20 ppm is at least 80%.
For the molecule `N#Cc1ncn(Cc2ccc(-c3noc(C(F)(F)F)n3)cn2)c1C#N` [Compound 1.135, 1-[[5-[5-(trifluoromethyl)-1,2,4-oxadiazol-3-yl]-2-pyridyl]methyl]imidazole-4,5-dicarbonitrile], the pest or weed control at 200 ppm in experiment [1] and in experiment [3] was at least 80% throughout. Besides, the inhibition of growth at 20 ppm in experiment [2] is at least 80%.
In the case of `FC(F)(F)c1nc(-c2ccc(Cn3cnc(Cl)c3Cl)nc2)no1` [Compound 1.137, 3-[6-[(4,5-dichloroimidazol-1-yl)methyl]-3-pyridyl]-5-(trifluoromethyl)-1,2,4-oxadiazole], the pest or weed control at 200 ppm in experiment [1] and in experiment [3] was at least 80% in each case. Further, the inhibition of growth at 20 ppm in experiment [2] was at least 80%.
Consider `FC(F)(F)c1nc(-c2ccc(Cn3cc(I)cn3)nc2)no1` [Compound 1.144, 3-[6-[(4-iodopyrazol-1-yl)methyl]-3-pyridyl]-5-(trifluoromethyl)-1,2,4-oxadiazole], for which the pest or weed control at 200 ppm in experiment [1] and in experiment [3] was at least 80% throughout. In experiment [2], the inhibition of growth at 20 ppm is at least 80%.
With `FC(F)(F)c1nc(-c2ccc(Cn3nnc(-c4ccccc4Br)n3)cc2)no1` [Compound 1.153, 3-[4-[[5-(2-bromophenyl)tetrazol-2-yl]methyl]phenyl]-5-(trifluoromethyl)-1,2,4-oxadiazole], in the experiment with Phakopsora pachyrhizi, the pest or weed control at 200 ppm is at least 80%.
Turning to `COc1ccc(Cc2ccc(-c3noc(C(F)(F)F)n3)cc2)cn1` [Compound 1.254, 3-[4-[(6-methoxy-3-pyridyl)methyl]phenyl]-5-(trifluoromethyl)-1,2,4-oxadiazole], the pest or weed control at 200 ppm in experiment [1] and in experiment [3] was at least 80% in each case. The inhibition of growth at 20 ppm in experiment [2] is at least 80%.
Regarding `CON=C1CCN(Cc2ccc(-c3noc(C(F)(F)F)n3)cc2)C1` [Compound 1.292, N-methoxy-1-[[4-[5-(trifluoromethyl)-1,2,4-oxadiazol-3-yl]phenyl]methyl]pyrrolidin-3-imine], the pest or weed control at 200 ppm in experiment [1] and in experiment [3] was at least 80% throughout. Besides, in experiment [2], the inhibition of growth at 20 ppm was at least 80%.
